Experimental data: PMC11714206, “Massively Parallel Screening of Toll/Interleukin‐1 Receptor (TIR)‐Derived Peptides Reveals Multiple Toll‐Like Receptors (TLRs)‐Targeting Immunomodulatory Peptides” (Advanced Science, 2024)
One block for each sequence: values may come before it.

Target: T1, MAL^TIR (Homo sapiens, UniProt P58753)
T1 construct: MAL (residues 79–221); 6xHis; made in house; host or cells: E. coli BL21 (DE3)
Test: T‐Surf phage library (P8 and P3) selection against MAL^TIR, four rounds, NGS read counts
Type: binding
Conditions: for P8_MAL Rank (after) / P8_MAL Rank (before): P8 library; for P3_MAL Rank (after) / P3_MAL Rank (before): P3 library; for Population: 4th round of selection against MAL TIR, share of NGS reads
Method in brief: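 Four panning rounds on TIR domain adsorbed at 5 µg mL^−1; binding 1 h at 20–22 °C, elution with 100 mM HCl. Output: NGS read counts of round‐4 pools versus naïve library.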

[1] = 4R selection against MAL, rank after grouping
[2] = 4R selection against MAL, rank before grouping
[3] = selection against MAL TIR, rank by count after grouping
[4] = selection against MAL TIR, rank by count before grouping
[5] = P3_MAL pool: P3 T-Surf phage library
[6] = P8_MAL: rank by count after grouping
[7] = P8_MAL: rank by count before grouping
[8] = selection against MAL, rank after grouping
[9] = selection against MAL, rank before grouping
[10] = P8_MAL pool: P8 T-Surf phage library
[11] = selection against MAL, rank by count after grouping
[12] = selection against MAL, rank by count before grouping
[13] = P3_MAL: rank by count after grouping
[14] = P3_MAL: rank by count before grouping

T1 sequence (P58753 79-221): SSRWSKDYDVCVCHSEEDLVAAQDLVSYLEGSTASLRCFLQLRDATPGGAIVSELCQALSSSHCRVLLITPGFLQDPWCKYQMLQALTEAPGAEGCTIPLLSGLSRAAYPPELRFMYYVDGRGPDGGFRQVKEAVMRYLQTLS

P8_MAL Rank (after) [1]: 595
P8_MAL Rank (before) [2]: 1130
Sequence: WFYGRLVSLMLRDAKR

Population [5]: 0.00488%
Sequence: SSFREGLWRLLELIKK

Population [10]: 0.0034%
Sequence: WSYERLVSLILRDTKV

P3_MAL Rank (after) [3]: 272
P3_MAL Rank (before) [4]: 1578
Sequence: YNFISHLYDTLHRNRN

Rank (after) [6]: 444
Rank (before) [7]: 2425
Sequence: HFSRIQLKSRLGETSF

P3_MAL Rank (after) [1]: 620
P3_MAL Rank (before) [2]: 3479
Sequence: NSFRERLRHLMAHSKM

Rank (after) [6]: 440
Rank (before) [7]: 2473
Sequence: SEFIQKIILWMNQTNV

P8_MAL Rank (after) [8]: 547
P8_MAL Rank (before) [9]: 1298
Sequence: WFYESLVSLLTRDTKV

P8_MAL Rank (after) [8]: 578
P8_MAL Rank (before) [9]: 1805
Sequence: AFLCDQLSTLMDPPTF

Rank (after) [13]: 401
Rank (before) [14]: 2818
Sequence: HHKAAMAKRWRNMKN

P8_MAL Rank (after) [1]: 634
P8_MAL Rank (before) [2]: 1183
Sequence: WFYERLVSLIMRDNIV

Rank (after) [6]: 183
Rank (before) [7]: 2199
Sequence: RNFVAYLFQALAHKSI

P3_MAL Rank (after) [3]: 269
P3_MAL Rank (before) [4]: 3129
Sequence: SSFRDGLWRLLELRKK

P3_MAL Rank (after) [11]: 723
P3_MAL Rank (before) [12]: 3142
Sequence: SSFREGLWRLLALSTN

Rank (after) [13]: 461
Rank (before) [14]: 2772
Sequence: HLLDKLRSNGISPFID

P3_MAL Rank (after) [8]: 504
P3_MAL Rank (before) [9]: 3170
Sequence: SSFREGLWRWRELRKK

P3_MAL Rank (after) [1]: 601
P3_MAL Rank (before) [2]: 1134
Sequence: FLSHLHRYLVQRGV

The remaining lines, values behind:

Sequence: NQWRNALTAEAKLSGW
P3_MAL Rank (after) [3]: 268
P3_MAL Rank (before) [4]: 3414

Sequence: KLCWEKFKCFLPSLSR
Rank (after) [6]: 404
Rank (before) [7]: 2727

Sequence: ARFKDMIINKWRTALTQAAN
P3_MAL Rank (after) [8]: 513
P3_MAL Rank (before) [9]: 1847

Sequence: TFLGHLYNALVQAAF
Rank (after) [6]: 453
Rank (before) [7]: 2584

Sequence: ESILNQLRRSSHSISN
P3_MAL Rank (after) [8]: 542
P3_MAL Rank (before) [9]: 2054

Sequence: RNFVRICFRRWRIKA
P8_MAL Rank (after) [11]: 687
P8_MAL Rank (before) [12]: 2235

Sequence: ASLYTFLINLTHPTNF
Population [10]: 0.0034%

Sequence: RKFVAYPFQALANKGI
P8_MAL Rank (after) [11]: 703
P8_MAL Rank (before) [12]: 2255

Sequence: YAFTGHLHRYLVQRAL
Population [5]: 0.00451%
Rank (after) [13]: 104
Rank (before) [14]: 149

Sequence: PNLRTKVLNYLFRTNT
P3_MAL Rank (after) [3]: 237
P3_MAL Rank (before) [4]: 2711

Sequence: AFLYTFLKNLPHPTNI
P8_MAL Rank (after) [11]: 709
P8_MAL Rank (before) [12]: 1873

Sequence: ERILNQLRRSSQSIAK
Rank (after) [13]: 421
Rank (before) [14]: 2078

Sequence: QLIQQWIELHAPAAS
Rank (after) [6]: 151
Rank (before) [7]: 969

Sequence: RNFGVYLFQALANKGI
Rank (after) [6]: 409
Rank (before) [7]: 2238

Sequence: AFLYSLLISLPETANI
P8_MAL Rank (after) [8]: 543
P8_MAL Rank (before) [9]: 1810

Sequence: YFLHFLLVSRAEAEFI
P8_MAL Rank (after) [8]: 565
P8_MAL Rank (before) [9]: 1499

Sequence: SSFRERLWRLLELRKK
Rank (after) [13]: 128
Rank (before) [14]: 3190

Sequence: AFCIRRLRVKALRFS
P3_MAL Rank (after) [8]: 569
P3_MAL Rank (before) [9]: 1783

Sequence: SLFLSSRFKDDADLVGQ
Rank (after) [13]: 433
Rank (before) [14]: 3057

Sequence: FLNFRGLVVRNYFLVH
P3_MAL Rank (after) [11]: 720
P3_MAL Rank (before) [12]: 1146

Sequence: SICREGLWRLLELSKK
P3_MAL Rank (after) [3]: 284
P3_MAL Rank (before) [4]: 3117

Sequence: WFYERLVSLLLRATKV
Rank (after) [6]: 170
Rank (before) [7]: 1156

Sequence: GFFERLVRMILRDTKV
P8_MAL Rank (after) [3]: 263
P8_MAL Rank (before) [4]: 1567

Sequence: PNLRTKVLNYLILTKT
Rank (after) [13]: 190
Rank (before) [14]: 2747

Sequence: AFLGEQLHTMVDKPTM
P8_MAL Rank (after) [8]: 491
P8_MAL Rank (before) [9]: 1776

Sequence: RGVLSRLRHHLQAKDH
P3_MAL Rank (after) [8]: 551
P3_MAL Rank (before) [9]: 2427

Sequence: YAFTGHLQRYLLQRGV
Rank (after) [13]: 188
Rank (before) [14]: 1460

Sequence: DWFLSKLSQHILKKG
Rank (after) [13]: 393
Rank (before) [14]: 1892

Sequence: PNLSPKVLNYLMRTKT
Rank (after) [13]: 181
Rank (before) [14]: 2751
